Tested on: human peripheral blood mononuclear cells (PBMC)
Assay type: cell-based

Substance | IL-1α and IL-1β mean gene expression upregulated [fold] | PPARg gene expression
lipopolysaccharide [LPS] | 4.4 | consistently downregulated
polyinosinic:polycytidylic acid [Poly(I:C)] | 4.1 | consistently downregulated
